The target of one assay is T1, PLK1 (Wild Type) (Homo sapiens, UniProt P53350).
T1 construct: the N terminus of a full-length cDNA of a wild type PLK1 is fused with GST; purchased Carna Biosciences Inc; host or cells: insect cell (baculovirus)
The assay can be described thus: Inhibitory effect against PLK1 activity (Method B), PLK1 wild type, [γ-33P]ATP peptide phosphorylation. The assay is classed as biochemical. The settings on record: 10 μM ATP, 20 μM substrate peptide, 25° C., 120 minutes. The text has this:
2. Measurement of Inhibitory Effect against PLK1 Activity (Method B)
Human PLK1 was purchased from Carna Biosciences Inc. According to the Product Information from Carna Biosciences Inc., the present enzyme is an enzyme obtained by preparing a baculovirus for which the N terminus of a full-length cDNA of a wild type PLK1 is fused with GST (glutathione S-transferase), followed by highly expressing PLK1 transfected into an insect cell as a GST-fused protein, and then carrying out a purification with the use of glutathione sepharose chromatography.
For the measurement of the PLK1 activity, a synthetic peptide (arginine-arginine-arginine-aspartic acid-glutamic acid-leucine-methionine-glutamic acid-alanine-serine-phenylalanine-alanine-aspartic acid-glutamine-glutamic acid-alanine-lysine-valine) (SEQ. ID. NO.: 1) in which the serine surrounding sequence of the amino acid sequence No. 198 of CDC25C having been reported as the site for PLK1 substrate [EMBO Report, 3rd edition, 341 (2002)] is altered, was used as a substrate for the PLK1.
The reaction was carried out in accordance with the method as described by Toyoshima-Morimoto et al. [Nature, Vol. 410, 215-220, (2001)]. The volume of the reaction solution was 10.5 μl and the composition of the reaction buffer was a 20 mM Tris-HCl buffer (pH 7.4)/10 mM magnesium chloride/0.5 mM dithiothreitol/1 mM EGTA (ethylene glycol-bis (beta-aminoethylether-N,N,N′,N′-tetraacetic acid). Thereto, purified PLK1, 20 μM of the substrate peptide, 10 μM of non-labeled adenosine triphosphate (ATP), and 0.3 μCi [γ-^33P]-labeled ATP (>2500 Ci/mmole) were added to perform the reaction at a reaction temperature of 25° C. for 120 minutes. Thereafter, 20 μI of a 350 mM phosphate buffer was added to the reaction system to terminate the reaction, and the resultant solution was spotted onto a multi-screen phosphocellulose filter on a 384-well plate. After the phosphocellulose filter is washed with a 75 mM phosphate buffer and then dried, the radioactivity was measured with a liquid cintillation counter. The non-labeled and [γ-^33P]-labeled ATPs, and the multi-screen phosphocellulose filter were purchased from GE Healthcare Bio-Sciences, and Millipore Corporation, respectively.
Addition of the compound of the present invention to the reaction system was carried out by adding 0.5 μl of the solution prepared by preliminarily dissolving the compound in dimethylsulfoxide at a 20-fold concentration of the final concentration. A control was provided by adding 0.5 μl of dimethylsulfoxide to the reaction system.

The next assay relates to HeLaS3 cells. Kind of assay: Inhibitory effect against cell proliferation: PLK1 inhibition at cellular level (M phase arrest, phospho-histone H3). In kind it is cell-based. The note with it: Homo sapiens, HeLa S3, 18 hours after addition, concentration inducing 50% of maximum ratio of cells arrested at M phase (histone H3 Ser10 phosphorylation). The procedure:
3. Measurement of the Inhibitory Effect against Cell Proliferation: Measurement of the Inhibitory Activity Against PLK1 at Cellular Level
For the measurement of the PLK 1 inhibitory activity of the compound at a cellular level, human uterine cervix cancer cell lines HeLaS3 cells were used. The HeLaS3 cell was obtained from American Type Culture Collection (ATTC), and cultured in a CO2-incubator of saturated steam by using Dulbecco's Modified Eagle's Medium containing 10% fetal calf serum at 37° C. in the presence of 5% CO2.
It has been reported that PLK 1 plays an important role in various stages of mitotic phase (M-phase) in mammalian cells (Nature Review Molecular Cell Biology (Nat. Rev. Mol. Cell. Biol.), Vol. 5, 429, (2004)). In fact, when mammalian cells are treated with PLK 1 siRNA to control the expression level, the cell cycle progression is inhibited and thus the cells are arrested at M phase. At the time, when the phosphorylation level of 10th serine residue on histone H3, which is thought to be required for a chromosome condensation in M phase, is examined, then it is observed that the level is enhanced to a high level. Thus, after treating the cells with the compound according to the invention, the phosphorylation level of histone H3 was examined by the indirect fluorescent antibody technique; the M phase cells were identified by using the level thereof as an indicator to analyze the ratio of cells arrested at M phase; and further EC50 value of each compound was calculated to evaluate the PLK1 inhibitory activity at a cellular level.
First, HeLaS3 cells were seeded into a lysine-treated 96-well plate (Falcon Corp.) in the proportion of 3,000 per one well, and allowed to stand still in the above-mentioned CO2 incubator. 24 hours after the seeding, the compound according to the invention, which is diluted in series, was added into each well of the plate, and further allowed to stand still in the CO2 incubator. 18 hours after the addition of the compound according to the invention, the culture medium containing the compound according to the invention in each well of the plate was removed, and then 100 μL of ice-cold 100% methanol (Wako Pure Chemical Industries, Ltd.) was added, to carry out cell fixation for 10 minutes and treatment of increasing the membrane permeability. Subsequently, to the wells in which the methanol was removed, 50 μL of 1% BSA/PBS was added, and then blocking was carried out for 30 minutes. Thereafter, for the primary antibody reaction, 50 μL of 1% BSA/PBS containing a […] Anti-phospho Histone H3 (Ser10) antibody (Upstate Corp.) was added to the wells, and the plate was left over at room temperature for 90 minutes. After terminating the reaction, each well was once washed with PBS; and for the second antibody reaction, 50 μL of 1% BSA/PBS containing […] Cy5-labelled antirabbit IgG (H+L) antibody (Chemicon) and 10 ug/mL DAPI (Sigma) which is a nucleus staining regent, was added, and further left over at room temperature for 90 minutes. After terminating the reaction, the reaction solution in wells was removed and replaced with 100 μL of PBS, and then fluorescence images were captured by using IN Cell Analyzer 1000 (manufactured by GE Amersham) to analyze the ratio of M phase cells (Mitotic index) in each view. When the maximum value of the ratio of cells arrested at M phase which can be induced by each drug is assumed as 100%, the drug concentration required for inducing 50% out of that 100% is defined as EC50.

The next assay concerns the target T2, PLK1-T210D (Homo sapiens, UniProt P53350, T210D).
T2 construct: GST (N, cleaved yes); made in house; host or cells: Spodoptera frugiperda Sf9 insect cells (baculovirus)
Kind of assay: Inhibitory effect against PLK1 activity (Method A), PLK1-T210D, [γ-33P]ATP peptide phosphorylation. In kind it is biochemical. The settings on record: 50 μM ATP, 50 μM substrate peptide, 25° C., 20 minutes. The source says: 1. Measurement of the Inhibitory Effect against PLK 1 Activity (Method A)
It has been known that 210th codon of human PLK1 which originally codes for threonine can be changed to an active type by altering the site into aspartic acid [Molecular and Cell Biology (Mol. Cell. Biol.), 17th edition, 3408 (1997)]. In order to obtain a human active type PLK1 protein, cDNA of mutated PLK1 (PLK1-T210D) of which the 210th codon codes for aspartic acid by substituting a base in the 210th codon of human PLK1 cDNA, was prepared. A baculovirus for which the N terminus of the PLK1-T210D cDNA is fused with GST (glutathione S-transferase) was prepared, and then the PLK1-T210D transfected into a Spodoptera frugiperda (Sf) 9 insect cell was highly expressed as a GST-fused protein. The cells were recovered and suspended in a lysis buffer (50 mM tris-hydrochloric acid buffer (pH 7.4)/150 mM sodium chloride/1 mM EDTA (ethylenediamine tetraacetic acid)/1 mM dithiothreitol/0.1% polyoxyethylene sorbitan monolaurate) to break cells with sonicator, and supernatant was recovered after a centrifugation. The supernatant was reacted on glutathione sepharose beads, and then the beads were washed with a lysis buffer. Thereafter, the beads were reacted in a lysis buffer containing Precision Protease (available from GE Healthcare Bioscience Company) to recover supernatant. […]
The reaction was carried out in accordance with the method of Toyoshima-Morimoto et al. [Nature, Vol. 410, 215-220, (2001)]. […] After washing the phosphocellulose filter with 75 mM phosphate buffer, the filter was dried to measure the radioactivity with a liquid scintillation counter. […]

T2 sequence (P53350 whole entry T210D): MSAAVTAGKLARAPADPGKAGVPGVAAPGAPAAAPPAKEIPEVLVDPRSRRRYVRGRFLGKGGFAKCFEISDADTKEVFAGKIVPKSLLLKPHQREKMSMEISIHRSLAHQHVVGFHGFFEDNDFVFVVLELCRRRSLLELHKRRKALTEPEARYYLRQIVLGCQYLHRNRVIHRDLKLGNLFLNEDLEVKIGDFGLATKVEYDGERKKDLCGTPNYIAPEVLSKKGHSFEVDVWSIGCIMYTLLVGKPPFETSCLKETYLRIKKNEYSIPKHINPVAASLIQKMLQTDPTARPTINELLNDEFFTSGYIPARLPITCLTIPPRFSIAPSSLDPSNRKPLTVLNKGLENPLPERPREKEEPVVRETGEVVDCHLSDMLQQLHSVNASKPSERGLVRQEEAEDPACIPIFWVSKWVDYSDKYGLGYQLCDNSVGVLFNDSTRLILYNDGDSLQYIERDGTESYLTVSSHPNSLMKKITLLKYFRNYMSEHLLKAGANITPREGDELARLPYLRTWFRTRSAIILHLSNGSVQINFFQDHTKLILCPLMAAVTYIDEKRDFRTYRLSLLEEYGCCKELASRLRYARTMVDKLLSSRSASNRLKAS
T1 sequence (P53350 whole entry, the tested form may be a part): as the sequence (P53350 whole entry T210D) above, with D210T counted along it

At PLK1 (Wild Type), `C[C@H](Nc1ncc(F)c(-c2cnc3c(Cl)cccn23)n1)c1ccc([C@H](O)CNC(C)(C)C)cc1` [Example 67, (1S)-2-(tert-butylamino)-1-[4-((1S)-1-{[4-(8-chloroimidazo[1,2-a]pyridin-3-yl)-5-fluoropyrimidin-2-yl]amino}ethyl)phenyl]ethanol] came in with a 50% inhibitory concentration (IC50) of 2.6 nM. The EC50 in the assay on HeLaS3 cells turned out to be 4 nM.
For `CCc1cccn2c(-c3nc(N[C@@H](C)c4ccc(C(O)[C@@H]5CCCN(C)C5)cc4)ncc3C#N)cnc12` (single isomer, unassigned) [Example 43], the IC50 was 1.4 nM at PLK1 (Wild Type) and 7 nM against PLK1-T210D. Also, in the assay on HeLaS3 cells, the concentration giving a half-maximal response (EC50) came out at 4 nM.
Consider `C[C@H](Nc1ncc(C#N)c(-c2cnc3c(C4CC4)cccn23)n1)c1ccc([C@H](O)[C@@]2(C)CCCN2C)cc1` [Example 66, 4-(8-cyclopropylimidazo[1,2-a]pyridin-3-yl)-2-[((1S)-1-{4-[(S)-[(2R)-1,2-dimethylpyrrolidin-2-yl](hydroxy)methyl]phenyl}ethyl)amino]pyrimidine-5-carbonitrile], for which half-maximal inhibition at PLK1 (Wild Type) (IC50) was put at 1.8 nM. Further, the EC50 in the assay on HeLaS3 cells is 2.9 nM.
In the case of `C[C@H](Nc1ncc(F)c(-c2cnc3c(Cl)cccn23)n1)c1ccc(C(O)C(C)(C)N(C)C)cc1` (single isomer, unassigned) [Example 85], half-maximal inhibition at PLK1 (Wild Type) (IC50) was put at 3.4 nM. Further, the EC50 in the assay with HeLaS3 cells was found to be 11 nM.
As to `CC(C)N1CC(C(O)c2ccc([C@H](C)Nc3ncc(F)c(-c4cnc5c(Cl)cccn45)n3)cc2)C1` (single isomer, unassigned) [Example 89], the midpoint of inhibition against PLK1 (Wild Type), the IC50, lay at 2.4 nM. Further, the 50% effective concentration (EC50) with HeLaS3 cells amounted to 13.9 nM.
In the same order, the values of `Cc1cnc(N[C@@H](C)c2ccc([C@H](O)CNC(C)(C)C)cc2)nc1-c1cnc2c(C3CC3)cccn12` [Example 73, (1S)-2-(tert-butylamino)-1-[4-((1S)-1-{[4-(8-cyclopropylimidazo[1,2-a]pyridin-3-yl)-5-methylpyrimidin-2-yl]amino}ethyl)phenyl]ethanol] are 10 nM and 5.7 nM.
For `CCc1cccn2c(-c3nc(N[C@@H](C)c4ccc(C(O)C5CCN(C)CC5)cc4)ncc3C#N)cnc12` (single isomer, unassigned) [Example 24], the IC50 at PLK1 (Wild Type) came to 1.4 nM; against PLK1-T210D, 4.1 nM. Moreover, in the assay on HeLaS3 cells, the EC50 was determined as 4.6 nM.
With `CCc1cccn2c(-c3nc(N[C@@H](C)c4ccc(C(O)[C@H]5CCCN5C)cc4)ncc3C#N)cnc12` (stereo partly drawn) [Example 55, 4-(8-ethylimidazo[1,2-a]pyridin-3-yl)-2-{[(1S)-1-(4-{hydroxy[(2R)-1-methylpyrrolidin-2-yl]methyl}phenyl)ethyl]amino}pyrimidine-5-carbonitrile], the IC50 against PLK1-T210D worked out at 11 nM. In addition, the concentration giving a half-maximal response (EC50) with HeLaS3 cells was found to be 5 nM.
`C[C@H](Nc1ncc(F)c(-c2cnc3c(Cl)cccn23)n1)c1ccc([C@H](O)CNC2(C)CCCC2)cc1` [Example 71, (1S)-1-[4-((1S)-1-{[4-(8-chloroimidazo[1,2-a]pyridin-3-yl)-5-fluoropyrimidin-2-yl]amino}ethyl)phenyl]-2-[(1-methylcyclopentyl)amino]ethanol] came in with a concentration for half-maximal inhibition (IC50) against PLK1 (Wild Type) of 2.2 nM. Further, in the assay with HeLaS3 cells, the half-maximal effective concentration (EC50) was 3.5 nM.
The molecule `CCc1cccn2c(-c3nc(N[C@@H](C)c4ccc([C@H](O)CNC(C)(C)C)cc4)ncc3C#N)cnc12` [Example 5, 2-[((1S)-1-{4-[(1S)-2-(tert-butylamino)-1-hydroxyethyl]phenyl}ethyl)amino]-4-(8-ethylimidazo[1,2-a]pyridin-3-yl)pyrimidine-5-carbonitrile] returned an IC50 against PLK1 (Wild Type) of 2.3 nM. Further, the EC50 with HeLaS3 cells was determined as 2.6 nM.

The IC50 is the concentration needed to halve the response being measured. As usually defined, the EC50 is the concentration that produces a half-maximal response.

These data come from US7977336B2, “Aminopyrimidine derivatives as PLK1 inhibitors” (Banyu Pharmaceutical Co. Ltd, priority 2006, dated 2011).
